For the data set the following is noted: non-polar organic solvents such as hexane toluene and ethylacetate.

With `C#CCN[C@@H]1CCc2ccccc21` [Rasagiline base], the “solubility in non-polar organic solvents” value is given as “very soluble”.
